Tests used:
Phytophthora infestans = assay type: in vivo; conditions: in vivo
Alternaria solani = experiment: Alternaria test (tomato)/protective; assay type: in vivo; conditions: in vivo
Description: (§1) Solvent: 49 parts by weight of N,N-dimethylformamide
(§2) Emulsifier: 1 part by weight of alkylaryl polyglycol ether
To produce a suitable preparation of active compound, 1 part by weight of active compound is mixed with the stated amounts of solvent and emulsifier, and the concentrate is diluted with water to the desired concentration.
To test for protective activity, young tomato plants are sprayed with the active compound preparation at the stated application rate. 1 day after the treatment, the plants are inoculated with a spore suspension of Alternaria solani and then remain at 100% rel. humidity and 22° C. for 24 h. The plants then remain at 96% rel. atmospheric humidity and a temperature of 20° C.
(§3) Evaluation is carried out 7 days after the inoculation. 0% means an efficacy which corresponds to that of the control, whereas an efficacy of 100% means that no infection is observed.

Pyrenophora teres = Pyrenophora teres test (barley)/protective; assay type: in vivo; conditions: in vivo
Description: as §1, §2
(§4) To produce a suitable preparation of active compounds, 1 part by weight of active compound is mixed with the stated amounts of solvent and emulsifier, and the concentrate is diluted with water to the desired concentration.
(§5) To test for protective activity, young barley plants are sprayed with the active compound preparation at the stated application rate. 1 day after the treatment, the plants are inoculated with an aqueous spore suspension of Pyrenophora teres and then remain at 100% rel. atmospheric humidity and 22° C. for 48 h. The plants are then placed in a greenhouse at 80% rel. atmospheric humidity and a temperature of 20° C.
(§6) Evaluation is carried out 7-9 days after the inoculation. 0% means an efficacy which corresponds to that of the control, whereas an efficacy of 100% means that no infection is observed.

Sphaerotheca fuliginea = experiment: Sphaerotheca test (cucumber)/protective; assay type: in vivo; conditions: in vivo
Description: as §1, §2, §4
To test for protective activity, young cucumber plants are sprayed with the active compound preparation at the stated application rate. 1 day after the treatment, the plants are inoculated with a spore suspension of Sphaerotheca fuliginea. The plants are then placed in a greenhouse at 70% rel. atmospheric humidity and a temperature of 23° C.
as §3

Leptosphaeria nodorum = Leptosphaeria nodorum test (wheat)/protective; assay type: in vivo; conditions: in vivo
Description: as §1, §2, §4
as §5, with “wheat” for “barley”, “Leptosphaeria nodorum” for “Pyrenophora teres”, “90%” for “80%”, “22°” for “20°”
as §6

[1] = log P determination by HPLC retention times (alkan-2-one calibration); conditions: HCOOH, preparation examples in the text; for chromatographic logP: log P(HCOOH)

Row | Structure (SMILES) | efficacy in % (Alternaria solani) [%] | efficacy in % (Pyrenophora teres) [%] | efficacy in % (Sphaerotheca fuliginea) [%] | chromatographic logP [1] | also measured
1 | FC(F)(F)c1ccc(-c2nn3c(c2-c2ccncc2)CCC3)cc1 [Example 17] |  |  |  |  | efficacy in % (Phytophthora infestans): 80%
2 | CN(C)C=Nc1cc(-c2c(-c3ccc(F)cc3)nn3c2CCCC3)ccn1 [Example 39] | 80 | 95 |  |  | efficacy in % (Phytophthora infestans): 80%
3 | CC(C)Nc1cc(-c2c(-c3ccc(Cl)cc3)nn3c2CCC3)ccn1 [Example 48] |  |  |  |  | efficacy in % (Phytophthora infestans): 70%
4 | Nc1cc(-c2c(-c3ccc(F)cc3)nn3c2CCC3)ccn1 [Example 69] |  |  |  |  | efficacy in % (Phytophthora infestans): 70%
5 | CC(C)CNc1cc(-c2c(-c3ccc(F)cc3)nn3c2CCC3)ccn1 [Example 71] |  | 80 |  |  | efficacy in % (Phytophthora infestans): 80%
6 | CCC(=O)Nc1cc(-c2c(-c3cccs3)nn3c2CCCC3)ccn1 [Example 75] | 95 | 100 | 95 |  | efficacy in % (Phytophthora infestans): 80%
7 | COCC(=O)Nc1cc(-c2c(-c3ccc(F)cc3)nn3c2CCOC3(C)C)ccn1 [Example 82] | 89 | 94 | 95 |  | efficacy in % (Leptosphaeria nodorum): 88%; efficacy in % (Phytophthora infestans): 70%
8 | CC1(C)OCCc2c(-c3ccnc(NC(=O)C4CC4)c3)c(-c3ccc(F)cc3)nn21 [Example 84] |  | 94 | 98 |  | efficacy in % (Leptosphaeria nodorum): 88%
9 | CC(C)C(=O)Nc1cc(-c2c(-c3cccs3)nn3c2CCCC3)ccn1 [Example 88] | 90 | 90 | 95 |  | efficacy in % (Phytophthora infestans): 80%
10 | COCC(=O)Nc1cc(-c2c(-c3ccc(F)cc3)nn3c2CCOC3)ccn1 [Example 94] | 90 | 95 | 93 |  | 
11 | CCC(=O)Nc1cc(-c2c(-c3ccc(F)cc3)nn3c2CCOC3)ccn1 [Example 95] | 80 | 100 | 95 |  | efficacy in % (Leptosphaeria nodorum): 90%
12 | CC(C)C(=O)Nc1cc(-c2c(-c3ccc(F)cc3)nn3c2CCCCC3)ccn1 [Example 97] | 70 | 100 | 100 |  | efficacy in % (Leptosphaeria nodorum): 80%
13 | O=C(Cc1ccccc1)Nc1cc(-c2c(-c3ccc(F)cc3)nn3c2CCCCC3)ccn1 [Example 98] | 90 | 95 | 90 |  | 
14 | CC(=O)Nc1cc(-c2c(-c3ccc(F)cc3)nn3c2CCCCC3)ccn1 [Example 99] | 80 | 95 | 98 |  | efficacy in % (Leptosphaeria nodorum): 95%
15 | CCC(=O)Nc1cc(-c2c(-c3ccccc3)nn3c2COCC3)ccn1 [Example 100] | 80 | 100 | 95 |  | efficacy in % (Leptosphaeria nodorum): 70%
16 | CC1CC1C(=O)Nc1cc(-c2c(-c3ccc(F)cc3)nn3c2CCOC3(C)C)ccn1 (centres unmarked) [Example 101] | 90 | 95 | 98 |  | efficacy in % (Leptosphaeria nodorum): 70%
17 | CC1(C)OCCc2c(-c3ccnc(NC(=O)C4CCC4)c3)c(-c3ccc(F)cc3)nn21 [Example 102] | 95 | 95 | 100 |  | efficacy in % (Leptosphaeria nodorum): 90%
18 | CCC(=O)Nc1cc(-c2c(-c3ccc(F)cc3)nn3c2COCC3)ccn1 [Example 104] | 80 | 95 | 93 |  | 
19 | CC(=O)Nc1cc(-c2c(-c3ccc(F)cc3)nn3c2CCOC3)ccn1 [Example 106] | 80 | 95 | 75 |  | 

Row | Structure (SMILES) | efficacy in % (Alternaria solani) [%] | efficacy in % (Pyrenophora teres) [%] | efficacy in % (Sphaerotheca fuliginea) [%] | chromatographic logP [1] | also measured
20 | O=C(Nc1cc(-c2c(-c3ccc(F)cc3)nn3c2CCOC3)ccn1)C1CC1 [Example 107] |  | 95 | 100 |  | efficacy in % (Leptosphaeria nodorum): 90%
21 | CC1CC1C(=O)Nc1cc(-c2c(-c3ccc(F)cc3)nn3c2CCOC3)ccn1 (centres unmarked) [Example 108] | 80 | 95 | 95 |  | efficacy in % (Leptosphaeria nodorum): 70%
22 | O=C(Nc1cc(-c2c(-c3ccc(F)cc3)nn3c2CCOC3)ccn1)C1CCC1 [Example 109] | 90 | 95 | 93 |  | 
23 | CC(C)CC(=O)Nc1cc(-c2c(-c3ccc(F)cc3)nn3c2CCOC3)ccn1 [Example 112] | 90 | 95 | 95 |  | efficacy in % (Leptosphaeria nodorum): 90%
24 | O=C(C#CCCOCc1ccccc1)c1ccc(F)cc1 [XX-1, 5-(Benzyloxy)-1-(4-fluorophenyl)pent-2-yn-1-one] |  |  |  | 3.89 | 
25 | Fc1ccc(-c2cc(CCOCc3ccccc3)[nH]n2)cc1 [XXI, 5-[2-(Benzyloxy)ethyl]-3-(4-fluorophenyl)-1H-pyrazole] |  |  |  | 3.09 | 
26 | CC(Cl)CCC(=O)NN=C(c1ccccc1)c1ccccc1 (centres unmarked) [XXV-1, 4-Chloro-N′-(diphenylmethylene)pentane hydrazide] |  |  |  |  | log P(HCOOH) [1]: 3.76
27 | CC1CCN(N=C(c2ccccc2)c2ccccc2)C1=O (centres unmarked) [XXV-3, 1-[(Diphenylmethylene)amino]-3-methylpyrrolidin-2-one] |  |  |  | 2.62 | 
28 | CC1CCC(=O)N1N=C(c1ccccc1)c1ccccc1 (centres unmarked) [XXVI-1, 1-[(Diphenylmethylene)amino]-5-methylpyrrolidin-2-one] |  |  |  | 2.73 | 
29 | O=C1CCCN1N=C(c1ccccc1)c1ccccc1 [XXVI-2, 1-[(Diphenylmethylene)amino]pyrrolidin-2-one] |  |  |  | 2.23 | 
30 | COC(=O)CC(=NN1C(=O)CCC1C)c1ccc(F)cc1 (centres unmarked) [XXVIII-1, Methyl 3-(4-fluorophenyl)-3-[(2-methyl-5-oxopyrrolidin-1-yl)imino]propanoate] |  |  |  | 2.13 | 
31 | CCOC(=O)CC(=NN1C(=O)CCC1C)c1ccccc1F (centres unmarked) [XXVIII-3, Ethyl 3-(2-fluorophenyl)-3-[(2-methyl-5-oxopyrrolidin-1-yl)imino]propanoate] |  |  |  | 2.34 | 
32 | CCOC(=O)CC(=NN1CCCC1=O)c1ccccc1F [XXVIII-4, Ethyl 3-(2-fluorophenyl)-3-[(2-oxopyrrolidin-1-yl)imino]propanoate] |  |  |  | 1.97 | 
33 | COC(=O)c1c(-c2ccc(F)cc2)nn2c1CCC2C (centres unmarked) [XXX-1, Methyl 2-(4-fluorophenyl)-6-methyl-5,6-dihydro-4H-pyrrolo[1,2-b]pyrazole-3-carboxylate] |  |  |  | 2.84 | 
34 | COC(=O)c1c(-c2ccc(F)cc2)nn2c1C(C)CC2 (centres unmarked) [XXX-2, Methyl 2-(4-fluorophenyl)-4-methyl-5,6-dihydro-4H-pyrrolo[1,2-b]pyrazole-3-carboxylate] |  |  |  | 2.71 | 
35 | CCOC(=O)c1c(-c2ccccc2F)nn2c1CCC2 [XXX-3, Ethyl 2-(2-fluorophenyl)-5,6-dihydro-4H-pyrrolo[1,2-b]pyrazole-3-carboxylate] |  |  |  | 2.49 | 
36 | CC1CCn2nc(-c3ccc(F)cc3)c(C(=O)O)c21 (centres unmarked) [XXXI-2, 2-(4-Fluorophenyl)-4-methyl-5,6-dihydro-4H-pyrrolo[1,2-b]pyrazole-3-carboxylic acid] |  |  |  | 1.84 | 
37 | CC1CCc2c(C(=O)O)c(-c3ccccc3F)nn21 (centres unmarked) [XXXI-3, 2-(2-Fluorophenyl)-6-methyl-5,6-dihydro-4H-pyrrolo[1,2-b]pyrazole-3-carboxylic acid] |  |  |  | 1.64 | 
38 | O=C(O)c1c(-c2ccccc2F)nn2c1CCC2 [XXXI-4, 2-(2-Fluorophenyl)-5,6-dihydro-4H-pyrrolo[1,2-b]pyrazole-3-carboxylic acid] |  |  |  | 1.35 | 
